Data: US20120003339A1, “COMPOSITIONS AND METHODS FOR CONTROLLING BLOOD GLUCOSE LEVELS” (priority 2010, published 2012)

Columns and labels:
Format in all cases: in vivo, human
[1] = Example I: blood glucose levels and side effects in a subject with type 2 diabetes; conditions: person, blood glucose 17 to 19 mmol/L at diagnosis, first prescribed drug
[2] = Example III: blood glucose levels in a morbidly obese subject with type 2 diabetes; conditions: person, 380 lb, on traditional medication
Method: A subject weighed 380 lb was diagnosed with type 2 diabetes and was considered morbidly obese. The subject was prescribed Metformin. With traditional medication their blood glucose levels were at about 19 mmol/L, well above the normal range. Although the subject was considered for gastric bypass surgery, their medical doctors would not operate because their blood glucose could not be controlled.
The subject started taking 25 mg each of Gudmar, Kalijiri, Kariyatu, and Neempan tablets three times a day. Two weeks after the subject started the taking the herbal composition of the invention, the subject's blood glucose levels had dropped to 5.5 mmol/L, within the normal range. As a result, the subject was able to proceed with the surgery.

[3] = Example II: morning (fasting) and two-hour after eating blood glucose readings, A1c and side effects in a subject with type 2 diabetes; conditions: 500 mg once a day
Method: A subject had been diagnosed with type 2 diabetes. Their fasting glucose reading was 11.6 mmol/L and A1c was 8.9%. Due to arthritis in their knee, exercise was not an option. […] They were prescribed 500 mg of Ratio-Metformin once a day. […] According to the endocrinologist, the subject's morning readings (fasting blood glucose levels) were in the range from 8.1 to 10.8 mmol/L, and their two-hour after eating readings were 10 to 13.8 mmol/L.
Due to the adverse side effects of Metformin, the subject decided to stop taking the prescribed daily Metformin and replace it with the composition and method of the present invention. […]
The first cycle was about three months in length. […] Within a week that the subject was treated with the method of the invention, their morning readings were in the 4 to 6.5 mmol/L range and their two hours after eating range were well below 9 mmol/L. It should be noted that, for three weeks during this period, the patient was on vacation in France, enjoying fine French food and wine. A month after finishing the first cycle, the subject took a second fasting sugar test and a A1c test, the readings were 6.6 mmol/L and 6%, respectively.
The subject was treated with three cycles of the composition and method of the present invention. […] Their morning readings were in the range of 4.3 to 6.5 mmol/L, and their two hour after eating readings were in the range of 6 to 8.5 mmol/L. […]

SMILES	blood glucose levels (effect in words) [1]	blood glucose levels [2]	side effect (in words) [3]	blood glucose levels (effect in words) ([3]; fasting glucose 11.6 mmol/L and A1c 8.9% at diagnosis)
CN(CCOc1ccc(CC2SC(=O)NC2=O)cc1)c1ccccn1 (stereo not shown) [Avandia, rosiglitazone]	did not reduce their blood glucose levels to the normal range	–	–	–
CN(C)C(=N)N=C(N)N [Metformin]	–	about 19 mmol/L	left them feeling confused, “in a fog.”	did reduce their blood glucose levels
